{"source": "the supplement of paper PMC9701192", "experiment_in_all_cases": "mass response relative to vehicle control (EMD distance of treated vs reference mass distribution minus control baseline) (% of mean reference cell mass); higher = larger drug-induced change in single-cell mass distribution (stronger response)", "key": {"H2228": {"system": "H2228", "procedure": "(§1)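 Cancer cell lines were treated in vitro with drugs at the listed doses (about 24 h; 0.25% DMSO vehicle). Single-cell buoyant mass was measured on suspended microchannel resonator instruments with CNN image curation, 2500 cells per condition. Mass response is the Earth Mover's Distance to vehicle-treated reference cells as % of mean reference mass.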"}, "H929": {"system": "H929", "procedure": "as §1"}, "A549": {"system": "A549", "procedure": "as §1"}, "PA-TU-8902": {"system": "PA-TU-8902", "procedure": "as §1"}, "HT-29": {"system": "HT-29", "procedure": "as §1"}, "H1666": {"system": "H1666", "procedure": "as §1"}, "KMS-12-PE": {"system": "KMS-12-PE", "procedure": "as §1"}, "MV-4-11": {"system": "MV-4-11", "procedure": "as §1"}}, "note": "± gives the uncertainty stated by the source.", "data": [{"smiles": "Cc1cc(Nc2ncc(Cl)c(Nc3ccccc3S(=O)(=O)C(C)C)n2)c(OC(C)C)cc1C1CCNCC1", "note": "[Ceritinib]", "values": [{"measurement": "mass response", "setting": "H2228; 0.01 µM", "result": "2.19 ± 0.97"}, {"measurement": "mass response", "setting": "H2228; 0.1 µM", "result": "25.7 ± 7.5"}, {"measurement": "mass response", "setting": "H2228; 1 µM", "result": "27.4 ± 6.2"}, {"measurement": "mass response", "setting": "H2228; 10 µM", "result": "61 ± 1"}]}, {"smiles": "CN(C)C(=O)c1cc2cnc(Nc3ccc(N4CCNCC4)cn3)nc2n1C1CCCC1", "note": "[Ribociclib]", "values": [{"measurement": "mass response", "setting": "H929; 0.1 µM", "result": "2.31 ± 0.72"}, {"measurement": "mass response", "setting": "H929; 1 µM", "result": "0.00401 ± 0.89"}, {"measurement": "mass response", "setting": "H929; 10 µM", "result": "1.33 ± 1.2"}, {"measurement": "mass response", "setting": "H929; 50 µM", "result": "14.2 ± 3.9"}]}, {"smiles": "CCc1cc2c(cc1N1CCC(N3CCOCC3)CC1)C(C)(C)c1[nH]c3cc(C#N)ccc3c1C2=O", "note": "[Alectinib]", "values": [{"measurement": "mass response", "setting": "A549; 0.1 µM", "result": 3.04}, {"measurement": "mass response", "setting": "A549; 0.5 µM", "result": 0.678}, {"measurement": "mass response", "setting": "A549; 1 µM", "result": 3.27}, {"measurement": "mass response", "setting": "A549; 10 µM", "result": 24.8}]}, {"smiles": "CCN1CCN(Cc2ccc(Nc3ncc(F)c(-c4cc(F)c5nc(C)n(C(C)C)c5c4)n3)nc2)CC1", "note": "[Abemaciclib]", "values": [{"measurement": "mass response", "setting": "H929; 0.05 µM", "result": "13.7 ± 3.8"}, {"measurement": "mass response", "setting": "H929; 0.5 µM", "result": "10.7 ± 3.7"}, {"measurement": "mass response", "setting": "H929; 5 µM", "result": "22.1 ± 2.2"}, {"measurement": "mass response", "setting": "H929; 20 µM", "result": "29.6 ± 1.8"}]}, {"smiles": "CC(C)C[C@H](NC(=O)[C@H](Cc1ccccc1)NC(=O)c1cnccn1)B(O)O", "note": "[Bortezomib]", "values": [{"measurement": "mass response", "setting": "H929; 0.001 µM", "result": "-0.979 ± 1.1"}, {"measurement": "mass response", "setting": "H929; 0.005 µM", "result": "24.1 ± 2.9"}, {"measurement": "mass response", "setting": "H929; 0.025 µM", "result": "34.2 ± 4.2"}, {"measurement": "mass response", "setting": "H929; 0.05 µM", "result": "33.7 ± 4.1"}]}, {"smiles": "O=C(O)C(=O)O.[NH-][C@@H]1CCCC[C@H]1[NH-].[Pt+2]", "note": "[Oxaliplatin]", "values": [{"measurement": "mass response", "setting": "PA-TU-8902; 0.5 µM", "result": "5.04 ± 2.9"}, {"measurement": "mass response", "setting": "PA-TU-8902; 5 µM", "result": "1.26 ± 5"}, {"measurement": "mass response", "setting": "PA-TU-8902; 25 µM", "result": "27.3 ± 9.2"}, {"measurement": "mass response", "setting": "PA-TU-8902; 50 µM", "result": "45.7 ± 3.4"}]}, {"smiles": "CCCS(=O)(=O)Nc1ccc(F)c(C(=O)c2c[nH]c3ncc(-c4ccc(Cl)cc4)cc23)c1F", "note": "[Vemurafenib]", "values": [{"measurement": "mass response", "setting": "HT-29; 0.01 µM", "result": "-0.111 ± 1.9"}, {"measurement": "mass response", "setting": "HT-29; 0.1 µM", "result": "2.67 ± 0.19"}, {"measurement": "mass response", "setting": "HT-29; 1 µM", "result": "16.5 ± 2.6"}, {"measurement": "mass response", "setting": "HT-29; 10 µM", "result": "24.3 ± 2.1"}]}, {"smiles": "COC(=O)N[C@@H](C)CNc1nccc(-c2cn(C(C)C)nc2-c2cc(Cl)cc(NS(C)(=O)=O)c2F)n1", "note": "[Encorafenib]", "values": [{"measurement": "mass response", "setting": "H1666; 0.01 µM", "result": "1.22 ± 0.73"}, {"measurement": "mass response", "setting": "H1666; 0.1 µM", "result": "-0.00481 ± 0.44"}, {"measurement": "mass response", "setting": "H1666; 1 µM", "result": "11.9 ± 4.1"}, {"measurement": "mass response", "setting": "H1666; 10 µM", "result": "20.6 ± 3.6"}]}, {"smiles": "Nc1ccn([C@@H]2O[C@H](CO)[C@@H](O)C2(F)F)c(=O)n1", "note": "[Gemcitabine]", "values": [{"measurement": "mass response", "setting": "PA-TU-8902; 0.002 µM", "result": "11.2 ± 4.4"}, {"measurement": "mass response", "setting": "PA-TU-8902; 0.02 µM", "result": "7.94 ± 0.91"}, {"measurement": "mass response", "setting": "PA-TU-8902; 0.2 µM", "result": "5.91 ± 0.96"}, {"measurement": "mass response", "setting": "PA-TU-8902; 2 µM", "result": "15.9 ± 3"}]}, {"smiles": "COc1cc2nccc(Oc3ccc(NC(=O)C4(C(=O)Nc5ccc(F)cc5)CC4)cc3)c2cc1OC", "note": "[Cabozantinib]", "values": [{"measurement": "mass response", "setting": "H2228; 0.01 µM", "result": "0.815 ± 0.96"}, {"measurement": "mass response", "setting": "H2228; 0.1 µM", "result": "1.67 ± 0.69"}, {"measurement": "mass response", "setting": "H2228; 1 µM", "result": "-1.71 ± 0.46"}, {"measurement": "mass response", "setting": "H2228; 10 µM", "result": "15.5 ± 1"}]}, {"smiles": "CC(C)(C)c1nc(-c2cccc(NS(=O)(=O)c3c(F)cccc3F)c2F)c(-c2ccnc(N)n2)s1", "note": "[Dabrafenib]", "values": [{"measurement": "mass response", "setting": "HT-29; 0.01 µM", "result": "10.7 ± 9.3"}, {"measurement": "mass response", "setting": "HT-29; 0.1 µM", "result": "19.1 ± 5.2"}, {"measurement": "mass response", "setting": "HT-29; 1 µM", "result": "24.3 ± 3.3"}, {"measurement": "mass response", "setting": "HT-29; 10 µM", "result": "16.9 ± 6.3"}]}, {"smiles": "CC1(C)CCC(CN2CCN(c3ccc(C(=O)NS(=O)(=O)c4ccc(NCC5CCOCC5)c([N+](=O)[O-])c4)c(Oc4cnc5[nH]ccc5c4)c3)CC2)=C(c2ccc(Cl)cc2)C1", "note": "[Venetoclax]", "values": [{"measurement": "mass response", "setting": "KMS-12-PE; 0.005 µM", "result": "0.784 ± 4.6"}, {"measurement": "mass response", "setting": "KMS-12-PE; 0.05 µM", "result": "22.2 ± 0.87"}, {"measurement": "mass response", "setting": "KMS-12-PE; 0.5 µM", "result": "35.5 ± 0.37"}, {"measurement": "mass response", "setting": "KMS-12-PE; 5 µM", "result": "39.9 ± 4.1"}]}, {"smiles": "CO[C@H]1C[C@@H]2CC[C@@H](C)[C@@](O)(O2)C(=O)C(=O)N2CCCC[C@H]2C(=O)O[C@H]([C@H](C)C[C@@H]2CC[C@@H](OCCO)[C@H](OC)C2)CC(=O)[C@H](C)/C=C(\\C)[C@@H](O)[C@@H](OC)C(=O)[C@H](C)C[C@H](C)/C=C/C=C/C=C/1C", "note": "[Everolimus]", "values": [{"measurement": "mass response", "setting": "PA-TU-8902; 0.5 µM", "result": "8.53 ± 1.9"}, {"measurement": "mass response", "setting": "PA-TU-8902; 5 µM", "result": "9.89 ± 5.3"}, {"measurement": "mass response", "setting": "PA-TU-8902; 20 µM", "result": "8.18 ± 4"}, {"measurement": "mass response", "setting": "PA-TU-8902; 50 µM", "result": "16.6 ± 7"}]}, {"smiles": "CCc1c2c(nc3ccc(O)cc13)-c1cc3c(c(=O)n1C2)COC(=O)[C@]3(O)CC", "note": "[SN-38]", "values": [{"measurement": "mass response", "setting": "HT-29; 0.01 µM", "result": "15.5 ± 0.51"}, {"measurement": "mass response", "setting": "HT-29; 0.1 µM", "result": "11.1 ± 2.3"}, {"measurement": "mass response", "setting": "HT-29; 1 µM", "result": "10.6 ± 0.61"}, {"measurement": "mass response", "setting": "HT-29; 10 µM", "result": "18 ± 3"}]}, {"smiles": "CNC(=O)c1ccc(-c2cnc3ncc(Cc4ccc5ncccc5c4)n3n2)cc1F", "note": "[Capmatinib]", "values": [{"measurement": "mass response", "setting": "HT-29; 0.01 µM", "result": "1.15 ± 0.93"}, {"measurement": "mass response", "setting": "HT-29; 0.1 µM", "result": "1.02 ± 2.5"}, {"measurement": "mass response", "setting": "HT-29; 1 µM", "result": "3.42 ± 3"}, {"measurement": "mass response", "setting": "HT-29; 10 µM", "result": "12.2 ± 4.3"}]}, {"smiles": "Nc1ccn([C@@H]2O[C@H](CO)[C@@H](O)[C@@H]2O)c(=O)n1", "note": "[Cytarabine]", "values": [{"measurement": "mass response", "setting": "MV-4-11; 0.001 µM", "result": "-1.03 ± 0.38"}, {"measurement": "mass response", "setting": "MV-4-11; 0.01 µM", "result": "2.01 ± 0.69"}, {"measurement": "mass response", "setting": "MV-4-11; 0.1 µM", "result": "15 ± 1.3"}, {"measurement": "mass response", "setting": "MV-4-11; 1 µM", "result": "22.9 ± 0.31"}]}, {"smiles": "CC(=O)Nc1cccc(-n2c(=O)n(C3CC3)c(=O)c3c(Nc4ccc(I)cc4F)n(C)c(=O)c(C)c32)c1", "note": "[Trametinib]", "values": [{"measurement": "mass response", "setting": "HT-29; 0.01 µM", "result": "26.9 ± 6.7"}, {"measurement": "mass response", "setting": "HT-29; 0.1 µM", "result": "27.1 ± 3.4"}, {"measurement": "mass response", "setting": "HT-29; 1 µM", "result": "23.5 ± 0.46"}, {"measurement": "mass response", "setting": "HT-29; 10 µM", "result": "24.4 ± 0.46"}]}, {"smiles": "C[C@@H](Oc1cc(-c2cnn(C3CCNCC3)c2)cnc1N)c1c(Cl)ccc(F)c1Cl", "note": "[Crizotinib]", "values": [{"measurement": "mass response", "setting": "A549; 0.01 µM", "result": "-1.1 ± 0.55"}, {"measurement": "mass response", "setting": "A549; 0.1 µM", "result": "-1.44 ± 0.16"}, {"measurement": "mass response", "setting": "A549; 1 µM", "result": "6.6 ± 1.6"}, {"measurement": "mass response", "setting": "A549; 10 µM", "result": "12.1 ± 0.61"}]}, {"smiles": "O=c1[nH]cc(F)c(=O)[nH]1", "note": "[Fluorouracil]", "values": [{"measurement": "mass response", "setting": "PA-TU-8902; 25 µM", "result": "-2.58 ± 0.15"}, {"measurement": "mass response", "setting": "PA-TU-8902; 50 µM", "result": "1.92 ± 7"}, {"measurement": "mass response", "setting": "PA-TU-8902; 0.0001 M", "result": "8.61 ± 5.8"}, {"measurement": "mass response", "setting": "PA-TU-8902; 0.00025 M", "result": "30.2 ± 2.5"}]}]}
